Columns and labels:
[1] = Compound cytotoxicity, XTT-based colorimetric assay; type: cell-based; conditions: human; uninfected MT2 cells, day 4, XTT; read-out: CC50
Summary of the method: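 CC50 derived from XTT colorimetric signal measured on day 4 in MT2 cells that were not infected. All other steps followed the antiviral assay protocol.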

[2] = system: recombinant NL4-3 virus (nef section replaced with Renilla luciferase gene) in MT-2 cells; assay: HIV cell culture assay (antiviral activity, luciferase readout); type: cell-based; conditions: Renilla, NL43, MT-2 cells infected for 4-5 days with recombinant NL4-3 Renilla luciferase virus
Summary of the method: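 The reporter virus was produced by transfecting 293T cells with the NL4-3 nef/Renilla luciferase proviral clone. MT-2 cells were infected for 4–5 days with serial compound dilutions present. Luciferase was read with a live-cell substrate, and EC50 came from the exponential median-effect equation.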

Cc1cc(C2(F)CCC(F)(F)CC2)nc2nc([C@H](Cc3cc(F)cc(F)c3)NC(=O)Cn3nc(C(F)F)c4c3C(F)(F)[C@@H]3C[C@H]43)n(-c3ccc(Cl)c4c(NS(C)(=O)=O)nn(CCN5C[C@H](C)OC(C)(C)C5)c34)c(=O)c12 (atropisomer, axis not shown; (P)) [Example 576]
CC50 at 4 days [1]: > 20 nM | EC50 [2]: 0.01 nM

Cc1cc(C2(F)CCC(F)(F)CC2)nc2nc([C@H](Cc3cc(F)cc(F)c3)NC(=O)Cn3nc(C(F)F)c4c3C(F)(F)[C@@H]3C[C@H]43)n(-c3ccc(Cl)c4c(NS(C)(=O)=O)nn(CCN5C[C@@H](C)O[C@@H](C)C5)c34)c(=O)c12 (atropisomer, axis not shown; (P)) [Example 502, N-[(1S)-1-[(3P)-3-(4-chloro-1-{2-[(2R,6S)-2,6-dimethylmorpholin-4-yl]ethyl}-3-methanesulfonamido-1H-indazol-7-yl)-5-methyl-4-oxo-7-(1,4,4-trifluorocyclohexyl)-3H,4H-pyrido[2,3-d]pyrimidin-2-yl]-2-(3,5-difluorophenyl)ethyl]-2-[(2S,4R)-9-(difluoromethyl)-5,5-difluoro-7,8-diazatricyclo[4.3.0.0^2,^4]nona-1(6),8-dien-7-yl]acetamide]
CC50 at 4 days [1]: > 20 nM | EC50 [2]: 0.019 nM

Cc1cc(C2(F)CCC(F)(F)CC2)nc2nc([C@H](Cc3cc(F)cc(F)c3)NC(=O)Cn3nc(C(F)F)c4c3C(F)(F)[C@@H]3C[C@H]43)n(-c3ccc(Cl)c4c(NS(C)(=O)=O)nn(CCN5CCOC(C)(C)C5)c34)c(=O)c12 (atropisomer, axis not shown; (P)) [Example 578, N-[(1S)-1-[(3P)-3-{4-chloro-1-[2-(2,2-dimethylmorpholin-4-yl)ethyl]-3-methanesulfonamido-1H-indazol-7-yl}-5-methyl-4-oxo-7-(1,4,4-trifluorocyclohexyl)-3H,4H-pyrido[2,3-d]pyrimidin-2-yl]-2-(3,5-difluorophenyl)ethyl]-2-[(2S,4R)-9-(difluoromethyl)-5,5-difluoro-7,8-diazatricyclo[4.3.0.0^2,^4]nona-1(6),8-dien-7-yl]acetamide]
CC50 at 4 days [1]: > 20 nM | EC50 [2]: 0.008 nM

Cc1cc(C2CCC(F)(F)CC2)nc2nc([C@H](Cc3cc(F)cc(F)c3)NC(=O)Cn3nc(C4CC4)c4c3C[C@@H]3C[C@H]43)n(-c3ccc(Cl)c4c(NS(C)(=O)=O)nn(CCN5CC6(CCC6)OC6(CCC6)C5)c34)c(=O)c12 (atropisomer, axis not shown; (P)) [Example 445, N-[(1S)-1-[(3P)-3-[4-chloro-3-methanesulfonamido-1-(2-{5-oxa-11-azadispiro[3.1.3^6.3^4]dodecan-11-yl}ethyl)-1H-indazol-7-yl]-7-(4,4-difluorocyclohexyl)-5-methyl-4-oxo-3H,4H-pyrido[2,3-d]pyrimidin-2-yl]-2-(3,5-difluorophenyl)ethyl]-2-[(2S,4S)-9-cyclopropyl-7,8-diazatricyclo[4.3.0.0^2,^4]nona-1(6),8-dien-7-yl]acetamide]
CC50 at 4 days [1]: > 20 nM | EC50 [2]: 0.015 nM

CCc1cc(C2CCC(F)(F)CC2)nc2nc([C@H](Cc3cc(F)cc(F)c3)NC(=O)Cn3nc(C(F)F)c4c3C[C@H]3C[C@@H]43)n(-c3ccc(Cl)c4c(NS(C)(=O)=O)nn(CCOC)c34)c(=O)c12 (relative stereo) [Example 636, N-[(1S)-1-[(3P)-3-[4-chloro-3-methanesulfonamido-1-(2-methoxyethyl)-1H-indazol-7-yl]-7-(4,4-difluorocyclohexyl)-5-ethyl-4-oxo-3H,4H-pyrido[2,3-d]pyrimidin-2-yl]-2-(3,5-difluorophenyl)ethyl]-2-[(2R*,4R*)-9-(difluoromethyl)-7,8-diazatricyclo[4.3.0.0^2,^4]nona-1(6),8-dien-7-yl]acetamide]
CC50 at 4 days [1]: > 50 nM | EC50 [2]: 0.015 nM

CNCc1cc(C2CCC(F)(F)CC2)nc2nc([C@H](Cc3cc(F)cc(F)c3)NC(=O)Cn3nc(C(F)F)c4c3C(F)(F)[C@@H]3C[C@H]43)n(-c3ccc(Cl)c4c(NS(C)(=O)=O)nn(CCCOC)c34)c(=O)c12 (atropisomer, axis not shown; (P)) [Example 472, N-[(1S)-1-[(3P)-3-[4-chloro-3-methanesulfonamido-1-(3-methoxypropyl)-1H-indazol-7-yl]-7-(4,4-difluorocyclohexyl)-5-[(methylamino)methyl]-4-oxo-3H,4H-pyrido[2,3-d]pyrimidin-2-yl]-2-(3,5-difluorophenyl)ethyl]-2-[(2S,4R)-9-(difluoromethyl)-5,5-difluoro-7,8-diazatricyclo[4.3.0.0^2,^4]nona-1(6),8-dien-7-yl]acetamide]
CC50 at 4 days [1]: > 20 nM | EC50 [2]: 0.087 nM

COCCCn1nc(NS(C)(=O)=O)c2c(Cl)ccc(-n3c([C@H](Cc4cc(F)cc(F)c4)NC(=O)Cn4nc(C(F)F)c5c4C(F)(F)[C@@H]4C[C@H]54)nc4nc(C5CCC(F)(F)CC5)cc(NCCc5ccccc5)c4c3=O)c21 (atropisomer, axis not shown; (P)) [Example 521, N-[(1S)-1-[(3P)-3-[4-chloro-3-methanesulfonamido-1-(3-methoxypropyl)-1H-indazol-7-yl]-7-(4,4-difluorocyclohexyl)-4-oxo-5-[(2-phenylethyl)amino]-3H,4H-pyrido[2,3-d]pyrimidin-2-yl]-2-(3,5-difluorophenyl)ethyl]-2-[(2S,4R)-9-(difluoromethyl)-5,5-difluoro-7,8-diazatricyclo[4.3.0.0^2,^4]nona-1(6),8-dien-7-yl]acetamide]
CC50 at 4 days [1]: > 20 nM | EC50 [2]: 0.079 nM

Cc1cc(C2(CF)CCC(F)(F)CC2)nc2nc([C@H](Cc3cc(F)cc(F)c3)NC(=O)Cn3nc(C(F)F)c4c3C(F)(F)[C@@H]3C[C@H]43)n(-c3ccc(Cl)c4c(NS(C)(=O)=O)nn(CCN5C[C@H](F)C[C@H](F)C5)c34)c(=O)c12 (atropisomer, axis not shown; (P)) [Example 556, N-[(1S)-1-[(3P)-3-(4-chloro-1-{2-[(3R,5S)-3,5-difluoropiperidin-1-yl]ethyl}-3-methanesulfonamido-1H-indazol-7-yl)-7-[4,4-difluoro-1-(fluoromethyl)cyclohexyl]-5-methyl-4-oxo-3H,4H-pyrido[2,3-d]pyrimidin-2-yl]-2-(3,5-difluorophenyl)ethyl]-2-[(2S,4R)-9-(difluoromethyl)-5,5-difluoro-7,8-diazatricyclo[4.3.0.0^2,^4]nona-1(6),8-dien-7-yl]acetamide]
CC50 at 4 days [1]: > 20 nM | EC50 [2]: 0.014 nM

Cc1cc(C2CCC(F)(F)CC2)nc2nc([C@H](Cc3cc(F)cc(F)c3)NC(=O)Cn3nc(C(F)F)c4c3C(F)(F)[C@@H]3C[C@H]43)n(-c3ccc(Cl)c4c(NS(C)(=O)=O)nn(CCN5CCC(F)(F)CC5)c34)c(=O)c12 (atropisomer, axis not shown; (P)) [Example 128, N-[(1S)-1-[(3P)-3-{4-chloro-1-[2-(4,4-difluoropiperidin-1-yl)ethyl]-3-methanesulfonamido-1H-indazol-7-yl}-7-(4,4-difluorocyclohexyl)-5-methyl-4-oxo-3H,4H-pyrido[2,3-d]pyrimidin-2-yl]-2-(3,5-difluorophenyl)ethyl]-2-[(2S,4R)-9-(difluoromethyl)-5,5-difluoro-7,8-diazatricyclo[4.3.0.0^2,^4]nona-1(6),8-dien-7-yl]acetamide]
CC50 at 4 days [1]: > 50 nM | EC50 [2]: 0.013 nM

COCCCn1nc(NS(C)(=O)=O)c2c(Cl)ccc(-n3c([C@H](Cc4cc(F)cc(F)c4)NC(=O)Cn4nc(C(F)(F)F)c5c4C[C@@H]4C[C@H]54)nc4nc(C5CCC(F)(F)CC5)cc(C)c4c3=O)c21 (atropisomer, axis not shown; (P)) [Example 88, N-[(1S)-1-[(3P)-3-[4-chloro-3-methanesulfonamido-1-(3-methoxypropyl)-1H-indazol-7-yl]-7-(4,4-difluorocyclohexyl)-5-methyl-4-oxo-3H,4H-pyrido[2,3-d]pyrimidin-2-yl]-2-(3,5-difluorophenyl)ethyl]-2-[(2S,4S)-9-(trifluoromethyl)-7,8-diazatricyclo[4.3.0.0^2,^4]nona-1(6),8-dien-7-yl]acetamide]
CC50 at 4 days [1]: > 50 nM | EC50 [2]: 0.021 nM

COCCCn1nc(NS(C)(=O)=O)c2c(Cl)ccc(-n3c([C@H](Cc4cc(F)cc(F)c4)NC(=O)Cn4nc(C(F)F)c5c4C(F)(F)[C@@H]4C[C@H]54)nc4nc(C5CCC(F)(F)CC5)cc(CN5CC(C(F)(F)F)C5)c4c3=O)c21 (atropisomer, axis not shown; (P)) [Example 605, N-[(1S)-1-[(3P)-3-[4-chloro-3-methanesulfonamido-1-(3-methoxypropyl)-1H-indazol-7-yl]-7-(4,4-difluorocyclohexyl)-4-oxo-5-{[3-(trifluoromethyl)azetidin-1-yl]methyl}-3H,4H-pyrido[2,3-d]pyrimidin-2-yl]-2-(3,5-difluorophenyl)ethyl]-2-[(2S,4R)-9-(difluoromethyl)-5,5-difluoro-7,8-diazatricyclo[4.3.0.0^2,^4]nona-1(6),8-dien-7-yl]acetamide]
CC50 at 4 days [1]: > 20 nM | EC50 [2]: 0.018 nM

Cc1cc(C2(F)CCC(F)(F)CC2)nc2nc([C@H](Cc3cc(F)cc(F)c3)NC(=O)Cn3nc(C(F)F)c4c3C(F)(F)[C@@H]3C[C@H]43)n(-c3ccc(Cl)c4c(NS(C)(=O)=O)nn([C@H](C)C(=O)N5CC(C)(C)OC(C)(C)C5)c34)c(=O)c12 (atropisomer, axis not shown; (P)) [Example 749, N-[(1S)-1-[(3P)-3-{4-chloro-3-methanesulfonamido-1-[(2R)-1-oxo-1-(2,2,6,6-tetramethylmorpholin-4-yl)propan-2-yl]-1H-indazol-7-yl}-5-methyl-4-oxo-7-(1,4,4-trifluorocyclohexyl)-3H,4H-pyrido[2,3-d]pyrimidin-2-yl]-2-(3,5-difluorophenyl)ethyl]-2-[(2S,4R)-9-(difluoromethyl)-5,5-difluoro-7,8-diazatricyclo[4.3.0.0^2,^4]nona-1(6),8-dien-7-yl]acetamide]
CC50 at 4 days [1]: > 20 nM | EC50 [2]: 0.018 nM

Reference: US12594276B2, “Inhibitors of human immunodeficiency virus replication” (ViiV Healthcare UK (No.5) Limited, priority 2024, dated 2026)
